The values that follow come from patent US8791158B2, “Methods of treating meibomian gland dysfunction” (GTX, Inc., priority 2010, dated 2014).

The subject of the test is acute, orchiectomized (ORX) rabbit model. The experiment in a line: Tear fatty acid composition (palmitate:stearate ratio) after Compound 2 or TP, Example 3. The class given is in vivo. As to conditions: ORX rabbits; for Tear palmitate:stearate ratio after 4 week washout: then untreated 4 weeks. From the text:
The goal of this study was to compare the effect of Compound 2 to testosterone propionate (TP) on tear composition in an acute, orchiectomized (ORX) rabbit model.
Fifteen New Zealand white rabbits weighing approximately 3 lbs were allowed to acclimate for 4 weeks before the start of the study. Animals were weighed on day 0 of the study, randomized according to body weight and allotted to the following dose groups:
Pre-dose tear and blood samples were collected. Animals from groups 2-5 were to premedicated with glycopyrrolate (0.02 mg/kg) and then anesthesia was induced with a combination of ketamine (15 mg/kg): medetomidine (0.25 mg/kg).
Anesthesia was maintained with isoflurane (1 liter/hr). Orchiectomy was performed using a scrotal incision. Animals were revived from anesthesia using atipamezole (1 mg/kg) SQ. Analgesia was provided with buprenorphine (0.05 mg/kg) Immediately after the animals had recovered from anesthesia, they received their first dose with the appropriate test articles as indicated above.
Drug dosing was done once daily for 14 days. Blood was collected at 60 minutes post administration of the last dose of drug and plasma separated for HPLC analysis of parent drug concentrations.
Tears were collected using Schirmer tear strips (Alcon, Tex.) on day 0 before surgery, 24 hours after the last administration of drug (day 15) and also at 42 days (6 weeks after start of study). The tears were stored at −80° C. prior to lipid analysis.
Lipids were hydrolyzed, extracted from the Schirmer strips, derivatized, and subjected to gas chromatography with flame ionization detector (GCFID) to evaluate the lipid composition.
The samples were evaluated for the presence of 28 saturated and unsaturated fatty acids that included methyl caprate (C10:0), methyl laurate (C12:0), methyl 11-dodecenoate (C12:1), methyl myristate (C14:0), methyl myristoleate (C14:1), methyl palmitate (C16:0), methyl palmitoleate (C16:1), methyl stearate (C18:0), methyl oleate (C18:1), methyl vaccenate (C18:1), methyl linoleate (C18:2), methyl gamma linoleate (C18:3), methyl linoleate (C18:3), methyl arachidate (C20:0), methyl 11-eicosenoate (C20:1), methyl 11,14 eicosadinoate (C20:2), methyl 8,11,14 eicosatrienoate (C20:3), methyl eicosapentaenoate (C20:5), methyl behenate (C22:0), methyl erucate (C22:1), methyl 13,16 docosaenoate (C22:2), methyl docosatetraenoate (C22:4), methyl docosapentaenoate (C22:5), methyl docosahexaenoate (C22:6), methyl lignocerate (C24:0), and methyl nervonate (C24:1).
The area under the curve for each individual peak was determined using GC ChemStation software. […] These samples were then washed with a saturated solution of NaCl+0.1% formic acid (FA). […] These samples were all in the predose tear group. Two more samples from the predose group and one sample from Vehicle Intact treated group had small but clear and well to separated peaks that were included in the analysis.
To normalize for the tear content, the lipid composition was expressed as a ratio of the lipid that was most affected by castration (palmitate) to one which remained relatively constant (stearate). Blood was also collected on day 15 (24 hours after last drug administration) of the study, plasma separated and analyzed for Compound 2.
The last dose of drug or vehicle was administered on day 15 of the study Animals were left untreated for 4 weeks (washout period) before tear samples were collected again on Schirmer tear strips and analyzed as indicated above.

As to `C[C@](O)(COc1ccc(C#N)c(F)c1)C(=O)Nc1ccc(C#N)c(C(F)(F)F)c1` [Compound 2, (S)—N-(4-cyano-3-(trifluoromethyl)phenyl)-3-(4-cyano-3-fluorophenoxy)-2-hydroxy-2-methylpropanamide], the “Increase of tear palmitate:stearate ratio relative to intact animals” value (2.5 mg/kg, 14 days) was “two times that of intact animals”. The “Tear palmitate:stearate ratio after 4 week washout” value (SQ 2.5 mg/kg for two weeks) is 1.47±0.172 and the “Tear palmitate:stearate ratio after 4 week washout” value (topical 2.5 mg/kg for two weeks) is listed as 1.66±0.426.
